Where a name gives a salt, the structure may show the parent alone. Read-outs that look alike come from different tables or passages of the source. Where only a bound is given, the exact number is not on record here.

Common to all, as to assay type: biochemical
For assay [1], the target named is T1, human JAK2 (a.a. 828-1132) (Homo sapiens, UniProt O60674).
T1 construct: JAK2 (a.a. 828-1132); His tag (N); made in house; host or cells: insect cells (baculovirus)
The assay is described as follows: In vitro JAK kinase assay (HTRF, phosphorylation of a biotinylated peptide), JAK2. The essentials:
(§1)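 Kinase activity was measured as phosphorylation of a biotinylated peptide, with ATP at 90 μM for JAK1, 30 μM for JAK2 and 3 μM for JAK3. Reactions ran 1 hr at room temperature, were stopped with EDTA plus SA-APC and Eu-Py20, and were read by HTRF after 40 minutes of antibody binding.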
(Time-resolved FRET reads energy transfer from a long-lived donor to a nearby acceptor.)

Assay [2] addresses T2, Recombinant Human Anaplastic Lymphoma Kinase (Homo sapiens, UniProt Q9UM73).
T2 construct: purchased Invitrogen, Carlsbad, Calif
Nature of the assay: ALK HTRF kinase assay. The following applies: for ALK % of inhibition at a concentration of 500 nM or 1 mM: compound at 500 nM or 1 mM. The essentials:
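IC50 was obtained from a logistic fit of signal versus log inhibitor concentration, using pre- and post-transition baselines and a Hill slope. The signal reported tyrosine phosphorylation of a biotinylated peptide by recombinant human kinase, detected as Eu-to-APC energy transfer.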

The next assay deals with TYK2 (Homo sapiens, UniProt P29597). Nature of the assay: TYK2 kinase inhibition (Table A1).
Chain of TYK2 (P29597 whole entry): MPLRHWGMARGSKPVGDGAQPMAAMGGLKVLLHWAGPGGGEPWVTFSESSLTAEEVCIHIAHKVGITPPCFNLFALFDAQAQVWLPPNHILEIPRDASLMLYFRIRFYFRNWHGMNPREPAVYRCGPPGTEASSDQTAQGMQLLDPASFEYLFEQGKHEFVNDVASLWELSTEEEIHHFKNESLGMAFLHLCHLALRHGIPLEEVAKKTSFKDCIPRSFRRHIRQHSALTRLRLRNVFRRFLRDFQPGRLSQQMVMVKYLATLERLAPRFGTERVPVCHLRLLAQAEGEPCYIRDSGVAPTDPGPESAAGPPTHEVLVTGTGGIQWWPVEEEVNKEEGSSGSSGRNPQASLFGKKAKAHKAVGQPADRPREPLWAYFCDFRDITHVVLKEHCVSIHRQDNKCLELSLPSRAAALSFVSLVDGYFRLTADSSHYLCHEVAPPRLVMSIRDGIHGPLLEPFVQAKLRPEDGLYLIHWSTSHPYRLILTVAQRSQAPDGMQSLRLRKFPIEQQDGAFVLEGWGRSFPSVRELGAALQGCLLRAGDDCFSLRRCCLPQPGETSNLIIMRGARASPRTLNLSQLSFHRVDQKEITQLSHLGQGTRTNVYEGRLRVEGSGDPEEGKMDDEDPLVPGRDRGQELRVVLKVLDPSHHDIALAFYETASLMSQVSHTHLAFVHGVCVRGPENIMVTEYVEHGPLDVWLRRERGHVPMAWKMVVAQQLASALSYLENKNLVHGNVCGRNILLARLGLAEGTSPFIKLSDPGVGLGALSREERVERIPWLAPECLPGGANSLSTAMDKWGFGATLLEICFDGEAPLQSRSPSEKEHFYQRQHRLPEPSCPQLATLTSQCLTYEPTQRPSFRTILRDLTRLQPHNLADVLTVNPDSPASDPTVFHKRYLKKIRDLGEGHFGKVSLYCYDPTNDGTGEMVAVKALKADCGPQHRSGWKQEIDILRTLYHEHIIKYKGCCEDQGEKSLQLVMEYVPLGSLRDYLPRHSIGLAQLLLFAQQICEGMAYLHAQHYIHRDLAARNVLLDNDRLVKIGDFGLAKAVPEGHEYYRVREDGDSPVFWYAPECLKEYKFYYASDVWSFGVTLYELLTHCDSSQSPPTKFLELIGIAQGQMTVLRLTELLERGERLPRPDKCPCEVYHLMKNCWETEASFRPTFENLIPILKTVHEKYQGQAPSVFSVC
The target in assay [3] is T3, human JAK3 (a.a. 781-1124) (Homo sapiens, UniProt P52333).
T3 construct: JAK3 (a.a. 781-1124); His tag (N); made in house; host or cells: insect cells (baculovirus)
T3 sequence (P52333 781-1124): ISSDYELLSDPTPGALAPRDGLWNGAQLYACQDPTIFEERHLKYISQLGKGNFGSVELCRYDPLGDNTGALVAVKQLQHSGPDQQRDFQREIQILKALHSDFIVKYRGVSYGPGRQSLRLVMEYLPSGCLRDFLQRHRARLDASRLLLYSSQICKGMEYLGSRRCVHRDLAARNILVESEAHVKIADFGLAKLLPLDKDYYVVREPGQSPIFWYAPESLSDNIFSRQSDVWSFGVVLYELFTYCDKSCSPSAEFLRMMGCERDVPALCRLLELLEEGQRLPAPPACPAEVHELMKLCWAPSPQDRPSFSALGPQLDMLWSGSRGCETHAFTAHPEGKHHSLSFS
Nature of the assay: In vitro JAK kinase assay (HTRF, phosphorylation of a biotinylated peptide), JAK3. The essentials: as §1

In assay [4] the target is T4, human JAK1 (a.a. 837-1142) (Homo sapiens, UniProt P23458).
T4 construct: human JAK1 (a.a. 837-1142); His tag (N); made in house; host or cells: insect cells (baculovirus)
T4 sequence (P23458 849-1154): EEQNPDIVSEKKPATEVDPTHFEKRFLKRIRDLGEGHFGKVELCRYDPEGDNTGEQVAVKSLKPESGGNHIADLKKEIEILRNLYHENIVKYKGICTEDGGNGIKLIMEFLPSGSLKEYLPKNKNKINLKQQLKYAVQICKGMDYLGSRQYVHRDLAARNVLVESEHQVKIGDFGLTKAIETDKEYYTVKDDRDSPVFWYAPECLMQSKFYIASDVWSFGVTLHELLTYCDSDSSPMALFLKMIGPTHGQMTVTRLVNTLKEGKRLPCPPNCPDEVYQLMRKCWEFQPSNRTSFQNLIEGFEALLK
The assay is described as follows: In vitro JAK kinase assay (HTRF, phosphorylation of a biotinylated peptide), JAK1. The following applies: read-out: JAK1 IC50. Summed up: as §1

The mark [5] stands for this setting: method AA1 (30 μM ATP) or AA2 (1000 μM ATP), not stated per value.
The mark [6] stands for this setting: method AA1 (3 μM ATP) or AA2 (1000 μM ATP), not stated per value.
Setting [7] is: method AA1 (90 μM ATP) or AA2 (1000 μM ATP), not stated per value.

T1 sequence (O60674 828-1132): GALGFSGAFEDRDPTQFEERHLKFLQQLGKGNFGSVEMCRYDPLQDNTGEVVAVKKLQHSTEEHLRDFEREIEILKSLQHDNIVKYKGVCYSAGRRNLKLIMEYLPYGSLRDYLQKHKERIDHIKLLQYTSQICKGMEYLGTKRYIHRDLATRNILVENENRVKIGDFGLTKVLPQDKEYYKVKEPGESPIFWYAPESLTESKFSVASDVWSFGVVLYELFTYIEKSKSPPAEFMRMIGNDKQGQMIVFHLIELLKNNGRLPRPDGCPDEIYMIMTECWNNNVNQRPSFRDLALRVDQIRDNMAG
T2 sequence (Q9UM73 19-1620): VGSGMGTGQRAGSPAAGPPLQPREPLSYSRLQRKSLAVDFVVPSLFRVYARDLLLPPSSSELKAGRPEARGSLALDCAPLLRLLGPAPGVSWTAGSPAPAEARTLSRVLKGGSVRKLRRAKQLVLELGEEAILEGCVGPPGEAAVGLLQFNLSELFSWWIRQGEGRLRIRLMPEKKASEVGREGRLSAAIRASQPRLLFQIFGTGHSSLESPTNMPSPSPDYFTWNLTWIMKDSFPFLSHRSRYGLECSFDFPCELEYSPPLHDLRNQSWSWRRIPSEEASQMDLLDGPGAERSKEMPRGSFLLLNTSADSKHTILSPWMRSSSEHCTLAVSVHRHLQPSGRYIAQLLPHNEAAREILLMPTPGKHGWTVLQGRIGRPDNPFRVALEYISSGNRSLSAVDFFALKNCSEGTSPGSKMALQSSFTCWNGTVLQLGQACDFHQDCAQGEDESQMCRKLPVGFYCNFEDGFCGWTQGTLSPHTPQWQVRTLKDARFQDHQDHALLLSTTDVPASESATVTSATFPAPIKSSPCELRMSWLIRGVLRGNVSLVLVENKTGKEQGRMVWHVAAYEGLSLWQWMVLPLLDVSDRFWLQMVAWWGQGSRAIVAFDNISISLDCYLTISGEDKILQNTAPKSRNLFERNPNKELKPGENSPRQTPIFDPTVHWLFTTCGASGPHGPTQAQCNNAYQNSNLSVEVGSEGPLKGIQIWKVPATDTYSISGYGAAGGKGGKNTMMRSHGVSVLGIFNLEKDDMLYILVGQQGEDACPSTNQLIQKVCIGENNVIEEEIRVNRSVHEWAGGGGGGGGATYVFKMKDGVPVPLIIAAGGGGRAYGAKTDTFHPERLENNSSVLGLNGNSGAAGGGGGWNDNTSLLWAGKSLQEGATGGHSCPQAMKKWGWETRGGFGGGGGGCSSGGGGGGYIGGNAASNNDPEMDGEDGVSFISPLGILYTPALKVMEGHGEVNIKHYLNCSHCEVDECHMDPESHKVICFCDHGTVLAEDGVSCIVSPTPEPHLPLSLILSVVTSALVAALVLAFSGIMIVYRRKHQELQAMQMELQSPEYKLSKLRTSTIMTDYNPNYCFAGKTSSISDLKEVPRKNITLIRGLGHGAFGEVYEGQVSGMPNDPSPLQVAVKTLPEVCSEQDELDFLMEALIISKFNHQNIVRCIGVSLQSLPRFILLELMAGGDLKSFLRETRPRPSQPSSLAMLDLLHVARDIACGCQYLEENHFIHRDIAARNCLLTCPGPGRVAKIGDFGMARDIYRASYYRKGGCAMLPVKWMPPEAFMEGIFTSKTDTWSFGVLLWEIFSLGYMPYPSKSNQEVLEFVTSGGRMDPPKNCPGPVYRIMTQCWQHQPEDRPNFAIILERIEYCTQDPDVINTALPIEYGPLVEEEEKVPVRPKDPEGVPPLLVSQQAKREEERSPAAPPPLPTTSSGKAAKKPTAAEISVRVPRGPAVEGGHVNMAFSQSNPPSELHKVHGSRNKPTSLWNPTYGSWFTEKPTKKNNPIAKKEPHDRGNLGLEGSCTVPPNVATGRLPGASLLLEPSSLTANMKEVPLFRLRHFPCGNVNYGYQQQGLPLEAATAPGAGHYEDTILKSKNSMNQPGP

As a reminder, the IC50 is the point on the concentration scale where inhibition reaches its midpoint. `Cc1cc(C(=O)Nc2cc3cc(c2)OCCSc2cccc(c2)Nc2nc(ncc2Cl)N3)no1` [Example D58, N-[6-Chloro-17-oxa-14-thia-2,4,8,24-tetraazatetracyclo[16.3.1.1(3,7).1(9,13)]tetracosa-1(22),3(24),4,6,9(23),10,12,18,20-nonaen-20-yl]-5-methylisoxazole-3-carboxamide trifluoroacetate]: the IC50 was 1.3 nM in assay [1] (Table D1); 490 nM in assay [2] (Table D1, 90 μM ATP); 2.5 nM on TYK2 (Table D1); 21 nM in assay [3] (Table D1); 6.5 nM in assay [4] (Table D1).

For `CC(C)(C)NC(=O)N1CCN(c2cc(-c3cc4cc(c3)Nc3ncc(Cl)c(n3)Nc3cccc(c3)OCC4)ccn2)CC1` [Example D41, N-(tert-Butyl)-4-{4-[6-chloro-14-oxa-2,4,8,23-tetraazatetracyclo[15.3.1.1(3,7).1(9,13)]tricosa-1(21),3(23),4,6,9(22),10,12,17,19-nonaen-19-yl]pyridin-2-yl}piperazine-1-carboxamide bis(trifluoroacetate)], the half-inhibitory concentration (IC50) came out at 0.4 nM in assay [1] (Table D1); 280 nM in assay [2] (Table D1, 90 μM ATP); 6.2 nM at TYK2 (Table D1); 17 nM in assay [3] (Table D1); 3.1 nM in assay [4] (Table D1).

As to `O=C(NCc1ccccc1)c1cc2cc(c1)OCCSc1cccc(c1)Nc1nc(ncc1Cl)N2` [Example D51, N-Benzyl-6-chloro-17-oxa-14-thia-2,4,8,24-tetraazatetracyclo[16.3.1.1(3,7).1(9,13)]tetracosa-1(22),3(24),4,6,9(23),10,12,18,20-nonaene-20-carboxamide trifluoroacetate], the 50% inhibitory concentration (IC50) in assay [1] (Table D1) came out at 1.2 nM; in assay [2] (Table D1, 90 μM ATP), 910 nM; on TYK2 (Table D1) it was 4.5 nM; in assay [3] (Table D1), 14 nM; in assay [4] (Table D1), 1.8 nM.

For `O=C1CCc2cccc(c2)Nc2nc(ncc2Cl)Nc2cccc1c2` [Example A5, 6-Chloro-2,4,8,23-tetraazatetracyclo[15.3.1.1(3,7).1(9,13)]tricosa-1(21),3(23),4,6,9(22),10,12,17,19-nonaen-16-one trifluoroacetate], the IC50 in assay [1] (setting [5]) is 56 nM; in assay [2] (90 μM ATP), 6180 nM; against TYK2, > 100 nM; in assay [3] (setting [6]), > 100 nM; in assay [4] (setting [7]), > 100 nM.

As for `O=C(CC1CCN(S(=O)(=O)c2cccnc2)CC1)Nc1ccc2cc1CCc1cccc(c1)Nc1ncc(Cl)c(n1)N2` [Example A212, N-[6-Chloro-2,4,8,22-tetraazatetracyclo[14.3.1.1(3,7).1(9,13)]docosa-1(20),3(22),4,6,9(21),10,12,16,18-nonaen-12-yl]-2-[1-(pyridin-3-ylsulfonyl)piperidin-4-yl]acetamide bis(trifluoroacetate)], the half-inhibitory concentration (IC50) is 8.6 nM in assay [1] (setting [5]), 85 nM at TYK2, > 200 nM in assay [3] (setting [6]) and 1.3 nM in assay [4] (setting [7]). For the same molecule, the “ALK % of inhibition at a concentration of 500 nM or 1 mM” value in assay [2] (90 μM ATP) was 45%.

In the case of `O=C(NCc1ccccc1)Nc1ccc2cc1CCc1cccc(c1)Nc1ncc(Cl)c(n1)N2` [Example B93, N-benzyl-N′-[6-chloro-2,4,8,22-tetraazatetracyclo[14.3.1.1(3,7).1(9,13)]docosa-1(20),3(22),4,6,9(21),10,12,16,18-nonaen-12-yl]urea trifluoroacetate], the IC50 in assay [1] (Table B1) is 3.4 nM; in assay [2] (Table B1, cells without percent sign) it was > 1000 nM; against TYK2 (Table B1), 12 nM; in assay [3] (Table B1), 43 nM; in assay [4] (Table B1) it was 2.6 nM.

Regarding `N#Cc1cccc(C(=O)N2CCC(CC(=O)Nc3ccc4cc3CCc3cncc(c3)Nc3ncc(Cl)c(n3)N4)CC2)c1` [Example A191, N-[6-Chloro-2,4,8,18,22-pentaazatetracyclo[14.3.1.1(3,7).1(9,13)]docosa-1(20),3(22),4,6,9(21),10,12,16,18-nonaen-12-yl]-2-[1-(3-cyanobenzoyl)piperidin-4-yl]acetamide bis(trifluoroacetate)], the IC50 in assay [1] (setting [5]) was > 200 nM; at TYK2, > 200 nM; in assay [3] (setting [6]), > 200 nM; in assay [4] (setting [7]), 67 nM. In addition, the “ALK % of inhibition at a concentration of 500 nM or 1 mM” value in assay [2] (90 μM ATP) stood at 25%.
